From ChEMBL document CHEMBL3244419
The source made the active and inactive calls. The calls are words filed in the database; no cut-off is given here.

Key:
Cavia porcellus [1] = organism: Cavia porcellus; conditions: Ileum, 10 nM
NG108-15 [2] = conditions: 0.5 uM
Description: Antagonist activity at opioid receptor in mouse/rat NG108-15 cells assessed as reversal of morphine-induced inhibition of adenylate cyclase activity at 0.5 uM

Cavia porcellus [3] = organism: Cavia porcellus; test: Agonist activity at opioid receptor in electrically stimulated guinea pig ileum at <50 uM; assay type: tissue-based
Cavia porcellus [4] = organism: Cavia porcellus; test: Agonist activity at opioid receptor in electrically stimulated guinea pig ileum at >=50 uM; assay type: tissue-based
NG108-15 [5] = test: Agonist activity at opioid receptor in mouse/rat NG108-15 cells assessed by adenylate cyclase assay; assay type: cell-based

Row | SMILES | inhibition (Cavia porcellus [1]) | inhibition (NG108-15 [2]) | Activity (Cavia porcellus [3]) | Activity (Cavia porcellus [4]) | Activity (NG108-15 [5])
1 | C=CCN1CC[C@]23c4c5ccc(O)c4O[C@H]2C(=O)CC[C@@]3(O)[C@H]1C5 | Active | Active |  |  | 
2 | C=CCN1CC[C@@]23c4c5ccc(O)c4O[C@@H]2C(=O)CC[C@]3(O)[C@@H]1C5 |  |  | inactive | inactive | inactive
